{
  "source": "patent US6239129A",
  "about": "“Cyano-indole serotonin-reuptake inhibitor compounds” (Adir et Compagnie, priority 1999, dated 2001)",
  "target": "T1, Serotonin-reuptake Sites (Rattus norvegicus, UniProt P31652)",
  "T1 construct": "The membranes are prepared from rat frontal cortex; from tissue; host or cells: rat frontal cortex membranes",
  "T1 sequence (P31652 whole entry)": "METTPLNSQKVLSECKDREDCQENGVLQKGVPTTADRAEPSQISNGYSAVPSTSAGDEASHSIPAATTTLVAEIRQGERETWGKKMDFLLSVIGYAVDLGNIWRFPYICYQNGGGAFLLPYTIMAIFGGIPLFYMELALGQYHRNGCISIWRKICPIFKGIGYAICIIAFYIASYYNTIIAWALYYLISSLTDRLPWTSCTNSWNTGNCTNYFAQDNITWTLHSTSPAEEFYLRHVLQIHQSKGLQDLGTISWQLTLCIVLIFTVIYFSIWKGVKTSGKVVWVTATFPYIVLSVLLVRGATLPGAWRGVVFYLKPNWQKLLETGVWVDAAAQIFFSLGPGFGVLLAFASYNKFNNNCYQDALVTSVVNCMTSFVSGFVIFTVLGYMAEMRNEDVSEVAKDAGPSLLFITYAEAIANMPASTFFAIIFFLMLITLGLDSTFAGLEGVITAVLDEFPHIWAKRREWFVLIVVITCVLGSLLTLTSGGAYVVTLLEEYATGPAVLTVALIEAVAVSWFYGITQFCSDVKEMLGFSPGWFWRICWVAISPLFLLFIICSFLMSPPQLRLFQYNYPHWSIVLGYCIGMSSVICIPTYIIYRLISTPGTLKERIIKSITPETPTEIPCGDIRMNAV",
  "experiment": "Determination of Affinity for Serotonin-reuptake Sites in the Rat ([^3 H]-paroxetine competition)",
  "assay_type": "binding",
  "details": "read-out: dissociation constant Ki",
  "method": "Determination of Affinity for Serotonin-reuptake Sites in the Rat\nThe incubation buffer contains 50 mM TRIS-HCl (pH 7.4), 120 mM NaCl and 5 mM KCl. Non-specific binding is determined using 10 μM citalopram. At the end of the incubation, the mixture is filtered through filters and washed three times with 5 ml of cooled buffer. The radioactivity retained on the filters is determined by liquid scintillation counting. The binding isotherms are analysed by non-linear regression to determine the IC50 values. The latter are converted into a dissociation constant (Ki) using the Cheng-Prusoff equation: […]",
  "note": "Where a name gives a salt, the structure may show the parent alone.",
  "data": [
    {"smiles": "COc1cncnc1N1CCN(CCCn2ccc3ccc(C#N)cc32)CC1", "note": "[Example 1, 1-{3-[4-(5-Methoxy-4-pyrimidinyl)-1-piperazinyl]propyl}-1H-indole-6-carbonitrile dihydrochloride]", "values": [
      {"measurement": "Ki", "result": 9.8, "unit": "nM"}
    ]}
  ]
}
